One series has as its system protease. The series can be described thus: Protease inhibition activity of inhibitor solutions and lotions, fresh and after storage. In kind it is biochemical. The following applies: for initial protease inhibition activity: freshly prepared preparation; for decrease of inhibitory activity after storage of solution: one month at room temperature, vs fresh solution. On the procedure: (§1) The inventor selected glycine soja and DPHP by testing numerous potential inhibitors in vitro to assess their activity against protease enzymes. A protease enzyme present in feces or urine, such as trypsin, chymotrypsin, or elastase, was placed in contact with a substrate (crosslinked albumin, sulfaniloazo-albumin and gelatin). Separately, the protease (trypsin, chymotrypsin or elastase) was incubated with a protease inhibitor and then this combination was placed in contact with the substrate. The substrate-protease or substrate-protease-protease inhibitor combination was then left to incubate.
(§2) At a defined time, the incubation was stopped by the addition of NaOH. Color was developed and read at OD 450. The intensity of the color developed was directly proportional to the amount of substrate digested by the protease.
Using the above methods, two protease inhibitors mentioned by the prior art were tested. […] However, they were left for one month and then tested for activity. After one month at room temperature, the activity of the stabilized AEBSF solution was decreased by 42%.

For the next series, the target named is T1, trypsin (Bos taurus, UniProt P00760).
T1 construct: gene PRSS1
T1 sequence (P00760 24-246): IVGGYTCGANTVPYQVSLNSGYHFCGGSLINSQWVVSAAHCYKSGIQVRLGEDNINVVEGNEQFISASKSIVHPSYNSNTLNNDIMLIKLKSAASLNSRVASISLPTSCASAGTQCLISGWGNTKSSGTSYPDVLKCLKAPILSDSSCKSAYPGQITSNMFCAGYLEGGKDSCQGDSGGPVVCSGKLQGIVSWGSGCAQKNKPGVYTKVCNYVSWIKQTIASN
The series can be described thus: Back digest of albumin/gelatin dye substrate by trypsin (FIGS. 2 and 4). The class given is biochemical. As for the experimental part:
as §1, §2
A back digest was performed with a spectrally active protease substrate, trypsin, and either DPHP or glycine soja. Trypsin was incubated with either DPHP or glycine soja, and for the control, neither DPHP nor glycine soja was used. The trypsin or trypsin+either DPHP or glycine soja was then placed in contact with a substrate, the results of which are shown in FIGS. 3 and 4.
(§3) The substrate used was a crosslinked albumin, sulfaniloazo-albumin and gelatin at a slightly acidic pH. […] This color development can be measured spectrophotometrically at OD 450 and the OD value is proportional to enzymatic activity. […] The OD 450 reading is directly proportional to the enzyme activity (i.e. the higher the value, the higher the enzyme activity).
(§4) A back digest was conducted when particulate suspensions were used as either enzyme or enzyme inhibitor or when lotions were being tested, because the particulate interferes with the OD readings. […] Color development was read at OD 450. […]
After an initial digest, the supernatant was decanted, and an excess of trypsin was added for further digestion of the substrate. After this final digest, supernatant optical density (OD) was read at 450 nm. […]

In series [1] the test system is elastase. The series can be described thus: Back digest of albumin/gelatin dye substrate by elastase (FIG. 4). The class given is biochemical. As for the experimental part: as §1
At a defined time, the incubation was stopped by the addition of NaOH. Color was developed and read at OD 450. […]
as §3, §4

The next series has as its target chymotrypsin (Bos taurus, UniProt P00766). Kind of series: In vitro protease substrate digest with chymotrypsin. In kind it is biochemical. As for the experimental part:
as §1, §2

Series [2] has as its system elastase. Particulars: studies by the manufacturer (Seppic); cited from earlier work.
The conditions of series [3]: shown by the manufacturer; cited from earlier work.
The mark [4] stands for this setting: DPHP material itself, back digest, FIG. 4.
[5] abbreviates: listed as dipalmitoyl hydroxyproline.

Like-named read-outs stand apart in the source and are kept apart here.

For `Cl.NCCc1ccc(S(=O)(=O)F)cc1` [AEBSF, 4-(2-aminoethyl)-benzenesulfonylfluoride hydrochloride], in the series on protease, the “initial protease inhibition activity” value is reported as “very high protease inhibition activity” and the “decrease of inhibitory activity after storage of solution” value came out at 42%.
With `CCCCCCCCCCCCCCCC(=O)O[C@@H]1C[C@@H](C(=O)O)N(C(=O)CCCCCCCCCCCCCCC)C1` [DPHP, dipalmitoyl hydroxyproline], the entries for the “inhibition of trypsin (in words)” value on trypsin and on trypsin (setting [5]) were “does inhibit” and “potent inhibitors”, respectively. Besides, the “change in trypsin activity” value at trypsin (setting [4]) is reported as −33%. In the series with elastase [1], the “inhibition of elastase (in words)” value is reported as “does inhibit”. The “change in elastase activity” value in the series on elastase [1] (setting [4]) was −22%. For the same compound, the “inhibition of chymotrypsin (in words)” value at chymotrypsin is reported as “does inhibit”; on chymotrypsin (setting [5]), “potent inhibitors”. For the same compound, the “inhibition of elastase (manufacturer)” value with elastase [2] is on record as “potent inhibitor of elastase”. Also, the “inhibition of free radicals (manufacturer)” value in series [3] is recorded as “potent inhibitor of free radicals”.
`N=C(N)c1ccc(OCCCCCCOc2ccc(C(=N)N)cc2)cc1.O=S(=O)(O)CCO.O=S(=O)(O)CCO` [Elestab, hexamidine diisethionate]: in the series with protease, the “initial protease inhibition activity” value is recorded as “very high protease inhibition activity” and the “decrease of inhibitory activity after storage of solution” value is recorded as “about 37%”.

The values are drawn from patent publication US20050048105A1, “Protease inhibitor compositions for prevention and treatment of skin conditions” (priority 2003, published 2005).
